ChEMBL document CHEMBL1122514, “Studies on synthesis and anticancer activity of selected N-(2-fluoroethyl)-N-nitrosoureas” (1984)
Where “and” joins values, the source holds several entries; their conditions need not be identical. Equal entries are not always repeated.

What was measured:
Mus musculus [1] = test: median survival time including day-60 survivors (MST), after post implantation at the optimal dose of 8 mg/kg; d=Not Attained; format: functional, organism-based; parameters: dose 8 mg/kg
Mus musculus [2] = test: Number of day-60 survivors at the optimal dose of 8 mg/kg; 8/10; format: functional
Mus musculus [3] = test: Optimal percentage of increased life span [(100 x MST treated mice / MST control mice) -100] at the optimal dose of 8 mg/kg; d=Not Attained; format: functional, organism-based; parameters: dose 8 mg/kg
Mus musculus [4] = organism: Mus musculus; test: (§1) Optimal percentage of increased life span [(100 x MST treated mice / MST control mice) -100]; format: functional
Mus musculus [5] = test: Compound is evaluated for antitumor activity against intraperitoneally implanted B16 melanoma cells in mice median survival time including day-60 survivors (MST); format: functional
Mus musculus [6] = test: Compound is evaluated for maximally tolerated dose (MTD) against intraperitoneally implanted B16 melanoma cells in mice; format: functional
Mus musculus [7] = organism: Mus musculus; test: Number of day-60 survivors; 3/10; format: functional
Mus musculus [8] = organism: Mus musculus; test: as §1; format: functional; remark: listed apart in the source
Mus musculus [9] = organism: Mus musculus; test: Number of day-60 survivors; 2/10; format: functional
Mus musculus [10] = test: Median survival time including day-60 survivors (MST), after post implantation at the optimal dose of 10 mg/kg; d=Not attained; format: functional, organism-based; parameters: dose 10 mg/kg
Mus musculus [11] = organism: Mus musculus; test: optimal percentage of increased life span [(100 x MST treated mice / MST control mice) -100]; format: functional
Mus musculus [12] = organism: Mus musculus; test: Number of day-60 survivors; 4/10; format: functional
Mus musculus [13] = test: Number of day-60 survivors at the optimal dose of 10 mg/kg; 7/10; format: functional
Mus musculus [14] = organism: Mus musculus; test: Number of day-60 survivors; 5/10; format: functional
Mus musculus [15] = test: Optimal percentage of increased life span [(100 x MST treated mice / MST control mice) -100] at the optimal dose of 10 mg/kg; d=Not Attained; format: functional, organism-based; parameters: dose 10 mg/kg
Mus musculus [16] = test: Compound is evaluated for antitumor activity against intraperitoneally implanted B16 melanoma cells in mice median survival time including day-60 survivors (MST); f=Not attained; format: functional, organism-based
Mus musculus [17] = organism: Mus musculus; test: Optimal percentage of increased life span [(100 x MST treated mice / MST control mice) -100]; f=Not Attained; format: functional, organism-based
Mus musculus [18] = test: Optimal percentage of increased life span [(100 x MST treated mice / MST control mice) -100] at the optimal dose of 5 mg/kg; format: functional
Mus musculus [19] = test: median survival time including day-60 survivors (MST), after post implantation at the optimal dose of 5 mg/kg; format: functional
Mus musculus [20] = test: Number of day-60 survivors at the optimal dose of 5 mg/kg; 3/10; format: functional
Mus musculus [21] = test: Number of day-60 survivors at the optimal dose of 20 mg/kg; 9/10; format: functional
Mus musculus [22] = organism: Mus musculus; test: Number of day-60 survivors; 1/10; format: functional
Mus musculus [23] = test: Optimal percentage of increased life span [(100 x MST treated mice / MST control mice) -100] at the optimal dose of 20 mg/kg; d=Not Attained; format: functional, organism-based; parameters: dose 20 mg/kg
Mus musculus [24] = test: Median survival time including day-60 survivors (MST), after post implantation at the optimal dose of 20 mg/kg; d=Not attained; format: functional, organism-based; parameters: dose 20 mg/kg
Mus musculus [25] = test: median survival time including day-60 survivors (MST), after post implantation at the optimal dose of 32 mg/kg; format: functional
Mus musculus [26] = test: Number of day-60 survivors at the optimal dose of 32 mg/kg; 1/10; format: functional
Mus musculus [27] = test: Optimal percentage of increased life span [(100 x MST treated mice / MST control mice) -100] at the optimal dose of 32 mg/kg; format: functional
Mus musculus [28] = test: Number of day-60 survivors at the optimal dose of 20 mg/kg; 3/10; format: functional
Mus musculus [29] = test: median survival time including day-60 survivors (MST), after post implantation at the optimal dose of 20 mg/kg; format: functional
Mus musculus [30] = test: Optimal percentage of increased life span [(100 x MST treated mice / MST control mice) -100] at the optimal dose of 20 mg/kg; format: functional
Mus musculus [31] = test: Median survival time including day-60 survivors (MST), after post implantation at the optimal dose of 5 mg/kg; format: functional
Mus musculus [32] = test: Number of day-60 survivors at the optimal dose of 20 mg/kg; 6/10; format: functional
Mus musculus [33] = organism: Mus musculus; test: Number of day-60 survivors; 0/10; format: functional
Mus musculus [34] = test: Optimal percentage of increased life span [(100 x MST treated mice / MST control mice) -100] at the optimal dose of 6.25 mg/kg; d=Not Attained; format: functional, organism-based; parameters: dose 6.25 mg/kg
Mus musculus [35] = test: Number of day-60 survivors at the optimal dose of 6.25 mg/kg; 9/10; format: functional
Mus musculus [36] = test: Median survival time including day-60 survivors (MST), after post implantation at the optimal dose of 6.25 mg/kg; d=Not attained; format: functional, organism-based; parameters: dose 6.25 mg/kg

Structure (SMILES): O=NN(CCCl)C(=O)NC1CCC(=O)NC1=O (centres undefined)
- MST (Mus musculus [1]): Not attained
- Survivors (Mus musculus [2]): 8
- ILS (Mus musculus [3]): Not attained

Structure (SMILES): O=NN(CCF)C(=O)NC1C(O)C(O)OC(CO)C1O (centres undefined)
- ILS (Mus musculus [4]): 110%
- MST (Mus musculus [5]): 50 days and 36 days
- MTD (Mus musculus [6]): 60 mg/kg
- Survivors (Mus musculus [7]): 3
- ILS (Mus musculus [8]): 131%
- Survivors (Mus musculus [9]): 2

Structure (SMILES): O=NN(CCF)C(=O)NC1C(O)CCCC1O (centres undefined)
- MST (Mus musculus [10]): Not attained
- ILS (Mus musculus [11]): 163%
- Survivors (Mus musculus [12]): 4
- Survivors (Mus musculus [13]): 7
- MST (Mus musculus [5]): 57 days
- MTD (Mus musculus [6]): 60 mg/kg
- Survivors (Mus musculus [14]): 5
- ILS (Mus musculus [15]): Not attained
- MST (Mus musculus [16]): Not attained
- ILS (Mus musculus [17]): Not attained

Structure (SMILES): O=NN(CCCl)C(=O)NC1C(O)CCCC1O (centres undefined)
- ILS at 5 mg/kg (Mus musculus [18]): 73%
- MST (Mus musculus [19]): 33.3 days
- Survivors (Mus musculus [20]): 3

Structure (SMILES): O=NN(CCF)C(=O)NC1CCC(=O)NC1=O (centres undefined)
- Survivors (Mus musculus [21]): 9
- ILS (Mus musculus [4]): 109% and 133%
- MST (Mus musculus [5]): 45.3 days and 40.3 days
- MTD (Mus musculus [6]): 60 mg/kg
- Survivors (Mus musculus [7]): 3
- Survivors (Mus musculus [22]): 1
- ILS (Mus musculus [23]): Not attained
- MST (Mus musculus [24]): Not attained

Structure (SMILES): O=NN(CCCl)C(=O)NC1CCCCC1 [LOMUSTINE]
- MST (Mus musculus [25]): 32 days
- Survivors (Mus musculus [26]): 1
- ILS at 32 mg/kg (Mus musculus [27]): 66%

Structure (SMILES): O=NN(CCF)C(=O)NC1CCCCC1
- Survivors (Mus musculus [28]): 3
- ILS (Mus musculus [4]): 71%
- MST (Mus musculus [5]): 37 days
- MTD (Mus musculus [6]): 60 mg/kg
- Survivors (Mus musculus [22]): 1
- MST (Mus musculus [29]): 44 days
- ILS at 20 mg/kg (Mus musculus [30]): 129%

Structure (SMILES): O=NN(CCF)C(=O)NCCO
- MST (Mus musculus [31]): 45.8 days
- ILS (Mus musculus [11]): 131%
- ILS at 5 mg/kg (Mus musculus [18]): 138%
- ILS (Mus musculus [4]): 150%
- MST (Mus musculus [5]): 50 days and 42.8 days
- MTD (Mus musculus [6]): 60 mg/kg
- Survivors (Mus musculus [7]): 3
- Survivors (Mus musculus [20]): 3

Structure (SMILES): O=NN(CCF)C(=O)NC1CCCCC1O (centres undefined)
- Survivors (Mus musculus [32]): 6
- ILS (Mus musculus [4]): 122% and 109%
- MST (Mus musculus [5]): 48 days and 35.8 days
- MTD (Mus musculus [6]): 60 mg/kg
- Survivors (Mus musculus [33]): 0
- Survivors (Mus musculus [7]): 3
- ILS (Mus musculus [23]): Not attained
- MST (Mus musculus [24]): Not attained

Structure (SMILES): O=NN(CCCl)C(=O)NCCO [ELMUSTINE]
- ILS (Mus musculus [34]): Not attained
- Survivors (Mus musculus [35]): 9
- MST (Mus musculus [36]): Not attained
